The source of these data is PubChem BioAssay (NCI).

Among the test systems are 786-0 renal; HL-60(TB) leukemia; HT29 colon; MOLT-4 leukemia; NCI-H226 lung; OVCAR-4 ovarian; OVCAR-5 ovarian; OVCAR-8 ovarian; SNB-75 CNS; TK-10 renal.
Common to all, as to assay: NCI tumour cell line growth inhibition, 48 h

Molecules are shown by their SMILES.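 Growth conditions: 96-well plates. Treatment: test compound, 48 hours, 5 concentrations. Analysis: linear interpolation between bracketing concentrations; unreached endpoints set to highest concentration. Abbreviation: GI50, concentration required for 50% inhibition of growth. The concentration for full growth arrest is given as TGI.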

Consider `NCCN1CCN(c2nccc(-c3ccc4ccccc4c3)n2)CC1`, for which the GI50 was 1.69 µM with 786-0 renal; 2.23 µM with HL-60(TB) leukemia; 1.93 µM in the experiment on HT29 colon; 2.05 µM in the experiment with MOLT-4 leukemia; 2.03 µM with NCI-H226 lung; 2.41 µM in the experiment on OVCAR-4 ovarian. Also, the GI50 with OVCAR-5 ovarian is 1.85 µM; in the experiment on OVCAR-8 ovarian it was 2.25 µM; with SNB-75 CNS it was 1.41 µM; in the experiment with TK-10 renal it was 1.78 µM. Besides, the TGI in the experiment with 786-0 renal is 3.17 µM; in the experiment on HL-60(TB) leukemia, 5.76 µM; in the experiment on HT29 colon it was 3.77 µM; with MOLT-4 leukemia, 4.44 µM; in the experiment on NCI-H226 lung, 5.66 µM; in the experiment on OVCAR-4 ovarian, 7.5 µM. The TGI worked out at 4.04 µM in the experiment with OVCAR-5 ovarian, 5.6 µM in the experiment on OVCAR-8 ovarian, 2.9 µM in the experiment on SNB-75 CNS and 3.27 µM in the experiment on TK-10 renal.

`Cc1ncc(NC(=O)c2ccc(CN3CCN(C)CC3)c(C(F)(F)F)c2)cc1Nc1nccc(-c2cccnc2)n1`: the GI50 in the experiment on 786-0 renal is 15.9 µM; with HL-60(TB) leukemia, 8.57 µM; in the experiment on HT29 colon it was 2.81 µM; with MOLT-4 leukemia it was 14.9 µM; in the experiment with NCI-H226 lung it was 19.5 µM; in the experiment with OVCAR-4 ovarian it was 15.5 µM. Further, the GI50 in the experiment on OVCAR-5 ovarian was 15.8 µM; with OVCAR-8 ovarian, 16.8 µM; with SNB-75 CNS, 15.2 µM; in the experiment with TK-10 renal it was 21.6 µM. Also, the TGI came out at 29.7 µM with 786-0 renal; 32.3 µM with HL-60(TB) leukemia; 21.8 µM in the experiment with HT29 colon; 49.6 µM with MOLT-4 leukemia; 39.7 µM in the experiment with NCI-H226 lung; 29.4 µM in the experiment on OVCAR-4 ovarian. Moreover, the TGI in the experiment on OVCAR-5 ovarian was 29.7 µM; with OVCAR-8 ovarian it was 31.6 µM; with SNB-75 CNS, 28.8 µM; in the experiment with TK-10 renal, 39.1 µM.

For `CNC(=O)c1cn(C[C@H](F)CCc2ccc(NC(=O)Cc3cc(OC4CC(F)(F)C4)cc(C)n3)nn2)nn1`, the GI50 is > 100 µM in the experiment on 786-0 renal; > 100 µM in the experiment with HL-60(TB) leukemia; > 100 µM in the experiment with HT29 colon; > 93.5 µM in the experiment with MOLT-4 leukemia; > 100 µM in the experiment on OVCAR-4 ovarian; > 100 µM in the experiment on OVCAR-5 ovarian. The GI50 with OVCAR-8 ovarian, with SNB-75 CNS and in the experiment on TK-10 renal was > 100 µM throughout. Also, the TGI in the experiment on 786-0 renal, in the experiment with HL-60(TB) leukemia, in the experiment on HT29 colon, in the experiment on MOLT-4 leukemia, in the experiment with NCI-H226 lung and in the experiment with OVCAR-4 ovarian was > 100 µM in each case. Moreover, the TGI with OVCAR-5 ovarian, in the experiment on OVCAR-8 ovarian, in the experiment on SNB-75 CNS and in the experiment with TK-10 renal was > 100 µM in each case.

As to `COc1cc(/C=C\c2ccc(O)cc2)cc(OC)c1OC`, the TGI was > 100 µM with 786-0 renal; > 29.3 µM with HL-60(TB) leukemia; > 100 µM with HT29 colon; > 100 µM with MOLT-4 leukemia; > 100 µM in the experiment with NCI-H226 lung; > 100 µM in the experiment with OVCAR-4 ovarian. Also, the TGI in the experiment on OVCAR-5 ovarian is > 100 µM; in the experiment with OVCAR-8 ovarian, > 100 µM; in the experiment with SNB-75 CNS, > 30 µM; in the experiment on TK-10 renal, > 100 µM.

Regarding `NC1=NC(=O)C(CC(=O)Nc2ccc([N+](=O)[O-])cc2[N+](=O)[O-])S1` (centres undefined), the TGI in the experiment on 786-0 renal, in the experiment with HL-60(TB) leukemia, in the experiment with HT29 colon, with MOLT-4 leukemia, in the experiment on NCI-H226 lung and in the experiment with OVCAR-4 ovarian was > 100 µM in each case. Besides, the TGI in the experiment on OVCAR-5 ovarian, in the experiment on OVCAR-8 ovarian, in the experiment on SNB-75 CNS and with TK-10 renal was > 100 µM each time.

Regarding `CC1=Nc2c(ccc3c2C(=O)c2ccccc2C3=O)NC(c2ccncc2)C1` (centres undefined), the GI50 in the experiment on 786-0 renal, in the experiment with HT29 colon, in the experiment on NCI-H226 lung, with OVCAR-4 ovarian and with OVCAR-8 ovarian was > 100 µM throughout. Moreover, the TGI with 786-0 renal, with HL-60(TB) leukemia, in the experiment on HT29 colon, in the experiment on MOLT-4 leukemia, in the experiment with NCI-H226 lung and with OVCAR-4 ovarian was > 100 µM in each case. Moreover, the TGI in the experiment with OVCAR-5 ovarian, in the experiment with OVCAR-8 ovarian, in the experiment on SNB-75 CNS and with TK-10 renal was > 100 µM throughout.

Turning to `CCn1c(-c2nonc2N)nc2ccc(F)cc21`, the GI50 in the experiment with 786-0 renal, with HL-60(TB) leukemia, with HT29 colon, in the experiment on MOLT-4 leukemia, in the experiment with NCI-H226 lung and in the experiment with OVCAR-4 ovarian was > 25 µM throughout. The GI50 in the experiment with OVCAR-5 ovarian, with OVCAR-8 ovarian, with SNB-75 CNS and with TK-10 renal was > 25 µM in each case. The TGI in the experiment with 786-0 renal, in the experiment on HL-60(TB) leukemia, in the experiment with HT29 colon, in the experiment with MOLT-4 leukemia, with NCI-H226 lung and with OVCAR-4 ovarian was > 25 µM each time. In addition, the TGI in the experiment on OVCAR-5 ovarian, in the experiment with OVCAR-8 ovarian, in the experiment with SNB-75 CNS and in the experiment with TK-10 renal was > 25 µM in each case.
